Consider 95 molecules from PubChem BioAssay AID602156 (GNF / Scripps Winzeler lab, 2011).

The test system of this experiment is P. yoelii liver stage in HepG2-A16-CD81EGFP, imaging. Briefly: Plasmodium liver-stage growth inhibition, dose response, imaging, Malaria Box, P. yoelii, HepG2-A16-CD81EGFP (AID 602156).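 Note: infected cells exposed to compound for 48 hours before fixation.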

Broadly, the IC50 is the point on the concentration scale where inhibition reaches its midpoint.

Where “and” joins values, the source holds several entries; their conditions need not be identical. Equal entries are not always repeated. Calls of active or inactive are those of the source. The rule behind the calls is not given here.

`Nc1nonc1-n1nnc(C(=O)NN=Cc2ccc(F)c(Br)c2)c1-c1ccc([N+](=O)[O-])cc1`: the IC50 was > 10000 nM (inactive).
Regarding `Oc1cccc2ccc(Nc3ccccn3)nc12`, the half-inhibitory concentration (IC50) is 142 nM.
Turning to `CC(C)(C)c1ccc(Oc2ccc(N3C(=O)C4CC=CCC4C3=O)cc2)cc1` (stereo not given), the IC50 is > 10000 nM (inactive).
Then `CCCCCC[n+]1ccccc1/C=C/c1ccc(N(C)C)cc1`, with 55.9 nM.
In the case of `COc1cccc(N2C(N)=NC(N)=NC2(C)C)c1` it was 29.5 nM; in that of `O=C(NC1CC1)c1ccc(CSCc2ccccc2Cl)o1`, 140 nM; in that of `Cc1ccc(C2Sc3ccccc3NC3=C2C(=O)c2ccccc23)cc1` (stereo not given), 278 nM.
Then `COC(=O)c1cc(NC(=S)NC(=O)c2c(OC)cccc2OC)cc(C(=O)OC)c1`, with > 10000 nM (inactive); and `Brc1ccc(-c2c[n+]3c(n2-c2ccccc2)SCC3)cc1`, with 828 nM.
As to `OC(CNC1CCCCC1)Cn1c2ccccc2c2ccccc21` (stereo not given), the IC50 is 3920 nM.
Then `CCOC(=O)C1=C(C)NC2=C(C(=O)C(C(=O)OCC)C(c3ccc(OC)cc3)C2)C1c1ccc(OC)c(OC)c1` (stereo not given), with 240 nM; and `CCCCN(CC)CCNC(=O)C1c2ccccc2C(=O)N(Cc2ccc(F)cc2)C1c1ccc(OC)cc1` (stereo not given), with 89.1 nM; and `Cc1ccc(-c2c[n+]3c(n2-c2ccccc2)SCC3)cc1`, with 1090 nM.
Then `O=C(Nc1ccc(C(F)(F)F)cc1)c1ccc(NCCCN2CCCCCC2)c([N+](=O)[O-])c1`, with 450 nM; and `CCN(CC)CCN(Cc1cc2ccc(C)cc2[nH]c1=O)C(=S)NC(C)c1ccccc1` (stereo not given), with 883 nM.
Then `COc1ccc2sc(Nc3nc(-c4ccccn4)cs3)nc2c1`, with 159 nM; and `COc1cccc(NC(=O)c2ccc(NCCCN3CC(C)CC(C)C3)c([N+](=O)[O-])c2)c1` (stereo not given), with 437 nM.
With `CCC(Sc1nnc(-c2ccc(C)cc2)c(-c2ccc(C)cc2)n1)C(=O)NCCOC` (stereo not given), the IC50 is 303 nM.
Then `CC1(C)N=C(N)N=C(N)N1c1ccc(F)cc1`, with 18.9 nM; and `CCCCN(CCCC)[P+](N(CCCC)CCCC)(N(CCCC)CCCC)N(CCCC)CCCC`, with 11.5 nM.
For the molecule `Cc1ccc(Nc2cc(C)nc(NCc3ccccc3)n2)c(C)c1`, the IC50 is 1300 nM.
Regarding `Cc1oc2c(c1C(=O)NCC1CCCO1)C(=O)c1ccccc1C2=O` (stereo not given), the IC50 was 189 nM.
Then `COc1cccc(-c2cncc(-c3cncc(OC)c3)n2)c1`, with > 10000 nM (inactive); and `CCC[n+]1cccc2ccc3cccnc3c21`, with 903 nM.
In the case of `CCOc1ccc(Nc2cc(=O)oc3ccccc23)cc1` it was 502 nM; in that of `Nc1ccc(N2CCCCCC2)cc1`, 1950 nM.
Then `c1ccc(-c2nn(-c3ccccc3)[n+](-c3ccccc3)n2)cc1`, with 107 nM.
Consider `OCCNc1nc(Nc2ccc(F)cc2)nc2ccccc12`, for which the IC50 was 136 nM.
In the case of `CCOc1ccc2[nH]c(=O)c(CN(CCN(CC)CC)C(=S)NCCCN(CC)CC)cc2c1` it was 2170 nM; in that of `Cc1ccc(-c2cc3nc4c(c(=O)n3[nH]2)CCCC4)cc1`, 75.3 nM; in that of `COc1ccc(C2CC(=O)C3=C(C2)NC(C)=C(C(=O)OC2CCCC2)C3c2cccc(C)c2)cc1OC` (stereo not given), 779 nM.
Then `Fc1ccc(Nc2nc(NCc3ccco3)c3ccccc3n2)cc1`, with 74.9 nM; and `CCOC(=O)c1cn(CC)c2cc(N(C)CCc3ccc(OC)c(OC)c3)c(F)cc2c1=O`, with 42.1 nM.
Then `Cc1c(Cl)cccc1N1C(=O)C2C3c4ccccc4C(c4ccccc43)C2C1=O` (stereo not given), with > 10000 nM (inactive); and `Cc1ccc2nc3nc4c(C)cccc4c(N)c3cc2c1`, with 47.4 nM; and `COC(OC)C(C)=NNC(N)=S`, with 4.93 nM.
In the case of `CSc1nnc(-c2cccc([N+](=O)[O-])c2)n1Cc1ccccc1`, the IC50 was 2510 nM.
Turning to `CCC(=O)NC(c1ccccc1Cl)c1cc(Cl)c2cccnc2c1O` (stereo not given), the concentration for half-maximal inhibition (IC50) is 1010 nM.
As to `CCN(CC)c1ccc(NC(=O)c2cccs2)cc1`, the IC50 was 396 nM.
Consider `CCCCCCN(C(=O)COc1ccccc1)C(CC)c1nc2ccccc2c(=O)n1-c1cccc(Cl)c1` (stereo not given), for which the IC50 was > 10000 nM (inactive).
Then `CC(c1nc2ccc(Cl)cc2c(=O)n1C)N1CCN(S(=O)(=O)c2cccc3ccccc23)CC1` (stereo not given), with 22.3 nM; and `COc1cc(C(=O)N2N=C(c3c(-c4ccccc4)c4cc(Br)ccc4[nH]c3=O)CC2c2cccc([N+](=O)[O-])c2)cc(OC)c1OC` (stereo not given), with 435 nM; and `CC1(C)N=C(N)N=C(N)N1c1ccc(Oc2ccc(Cl)cc2)c(Cl)c1`, with 73 nM.
Then `CC[n+]1c(C=C2C=C(C)OC(C)=C2)sc2ccccc21`, with 245 nM; and `CCOC(=O)c1ccc(NC(=O)CSc2nc(NCc3ccccc3)c3ccccc3n2)cc1`, with 38.1 nM.
With `NCC(=O)N1CCn2c(nc(-c3ccccc3)c2Nc2ccc3c(c2)OCO3)C1`, the IC50 is 221 nM.
In the case of `CCCN(CCC)CCCNc1ccc(C(=O)Nc2ccc(C)c(F)c2)cc1[N+](=O)[O-]` it was 646 nM; in that of `CCCCN(CCCC)S(=O)(=O)c1ccc(NC(=O)c2ccco2)cc1`, 377 nM.
In the case of `CCC1CN2CCc3cc(OC)c(OC)cc3C2CC1CC1NCCc2cc(OC)c(OC)cc21` (stereo not given) it was 80.2 nM.
Regarding `COc1ccc2nc(C)cc(Nc3ccc(Cl)c(Cl)c3)c2c1`, the IC50 was 438 nM.
In the case of `c1ccc2cc3c(N4CCN(CCN5CCN(c6ccnc7cc8ccccc8cc67)CC5)CC4)ccnc3cc2c1` it was 2910 nM.
In the case of `CC(C)c1nc(N2CCN(C(=O)Nc3ccccc3)CC2)c(C#N)c2c1COC(C)(C)C2` it was 1020 nM; in that of `CC[n+]1c(/C=C/N(C)c2ccccc2)n(-c2ccccc2)c2ccc(-c3nc4ccccc4s3)cc21`, 14 nM.
In the case of `COc1ccc2[nH]c(=O)c(CN(C(=S)Nc3ccccc3OC)C3CCCC3)cc2c1` it was > 9740 nM (inactive).
Consider `Fc1ccc2nc(Nc3nc(-c4ccccn4)cs3)sc2c1`, for which the half-inhibitory concentration (IC50) is 43.8 nM.
Take `CN1C(=O)N(C)C(NNC(N)=S)C1NNC(N)=S` (stereo not given): the IC50 is 15 nM.
Take `O=C(Cc1ccccc1)NC(c1ccc(Cl)cc1)c1ccc2cccnc2c1O` (stereo not given): the IC50 is 190 nM.
In the case of `COc1ccc2cc3[n+](cc2c1OC)CCc1cc2c(cc1-3)OCO2` it was 548 nM; in that of `CC(=O)Nc1ccc(-c2nc(-c3ccc(Oc4ccc(-c5[nH]c(-c6ccc(NC(C)=O)cc6)nc5-c5ccccc5)cc4)cc3)c(-c3ccccc3)[nH]2)cc1`, > 3730 nM (inactive).
In the case of `CCCc1c(C)[nH]c2ccccc2c1=O` it was 279 nM; in that of `c1ccc2c(NCCc3cnc[nH]3)c3ccccc3nc2c1`, 706 nM.
In the case of `CCOC(=O)C1=C(C)NC2=C(C(=O)C(C(=O)OCC)C(c3ccccc3OC)C2)C1c1cc(OC)c(OC)c(OC)c1` (stereo not given), the IC50 was 509 nM.
Then `Cc1cc(OC(C)C(=O)N2CCc3ccccc32)ccc1Cl` (stereo not given), with 776 nM; and `CCOC(=O)c1cnc2ccc(OC)cc2c1Cl`, with 410 nM.
Turning to `CC(C)(C)OC(=O)N1CCC(c2c(C(=O)Nc3cccc(C(F)(F)F)c3)cnn2-c2ccc(F)cc2F)CC1`, the IC50 is 3120 nM.
Turning to `N#Cc1c2c(c(N3CCN(c4ccccn4)CC3)n3c1nc1ccccc13)CCC2`, the IC50 was > 10000 nM (inactive).
Then `CCCCCCCc1cc(O)c2c3c(c(=O)oc2c1)CCC(C)C3` (stereo not given), with 247 nM.
Then `CCc1c(C#N)c(N)nc(SCC(=O)c2ccc(C)cc2)c1C#N`, with > 10000 nM (inactive); and `CCOc1ccc(Nc2nc(NCc3ccccc3)c3ccccc3n2)cc1`, with 480 nM.
In the case of `CCOC(=O)c1c[nH]c2ccc(OC)cc2c1=O` it was 293 nM and 135 nM.
Regarding `COc1ccc(CN2CCOc3ccc(C(C)(O)CN(C)C)cc3C2)cc1C` (stereo not given), the IC50 was 67.5 nM.
Then `O=C(c1ccc([N+](=O)[O-])cc1)c1ccc(Cl)c(Cl)c1`, with 1640 nM; and `CCOC(=O)C1=C(C)NC2=C(C(=O)C(C(=O)OCC)C(c3ccccc3OC)C2)C1c1ccc([N+](=O)[O-])cc1` (stereo not given), with 335 nM; and `Cc1cccc(N2C(N)=NC(N)=NC2(C)C)c1`, with 4.25 nM.
In the case of `Cc1nc([P+](c2ccccc2)(c2ccccc2)c2ccccc2)c(N2CCCCC2)o1` it was 82.4 nM; in that of `CCN1C(=Cc2cc[n+](C)cc2)C=Cc2cc(C)ccc21`, 170 nM.
In the case of `O=C(O)Cn1cnc2nc3n(c2c1=O)CCC3` it was > 765 nM (inactive); in that of `CC[n+]1c(C=C2C=Cc3cc(C)ccc3N2C)sc(C)c1C`, 11.3 nM; in that of `O=C1c2ccccc2-n2c1nc1ccccc1c2=O`, 225 nM.
In the case of `O=C1c2ccccc2C2=Nc3ccccc3SC(c3cccc(F)c3)C12` (stereo not given), the IC50 was 162 nM.
In the case of `C1CCC(NP2(NC3CCCCC3)=NP(NC3CCCCC3)(NC3CCCCC3)=NP(NC3CCCCC3)(NC3CCCCC3)=N2)CC1` it was 18.6 nM; in that of `CC(C)CC(N)C(=O)N1CCn2c(nc(-c3ccccc3)c2Nc2ccc3c(c2)OCO3)C1` (stereo not given), 186 nM; in that of `S=C(NN=Cc1ccccn1)NC1CC2CC1C1C=CCC21` (stereo not given), 25.6 nM.
Then `CCCCCCOc1ccc(NC(=O)c2cccs2)cc1`, with 139 nM; and `CCOC(=O)c1ccc(NCc2c(C)[nH]c3ccccc3c2=O)cc1`, with 137 nM; and `Nc1cccc(C(=O)Nc2ccc(Oc3cccc(Oc4ccc(NC(=O)c5cccc(N)c5)cc4)c3)cc2)c1`, with 1760 nM.
In the case of `CC1(C)N=C(N)N=C(N)N1c1ccc(I)cc1` it was 10 nM.
On to `COc1ccc(-c2c(C(F)(F)F)nn(C)c2NC(=O)Nc2ccc(F)cc2F)cc1`, for which the IC50 was 3450 nM.
Take `Cc1ccnc(NC(c2ccc3ccccc3c2)c2ccc3cccnc3c2O)c1` (stereo not given): the IC50 was 556 nM.
In the case of `Cc1cc(C)nc(N=C(N)Nc2cccc(O)c2)n1` it was 152 nM.
In the case of `Fc1ccc(Nc2nc(NCc3ccccc3)c3ccccc3n2)cc1` it was 3790 nM.
Then `NC(Cc1ccccc1)C(=O)N1CCn2c(nc(-c3ccccc3)c2Nc2ccc3c(c2)OCO3)C1` (stereo not given), with 1.85 nM; and `CCN1CCN(c2cc(C)c3cc(NC(=O)c4cc(OC)cc(OC)c4)ccc3n2)CC1`, with 3740 nM; and `Cc1cn2c3ccccc3n(CCN3CCCC3)c2n1`, with 1070 nM.
Turning to `CCc1ccccc1NC(C)=O`, the IC50 is > 10000 nM (inactive).
